Measured values from publication PMC3995882, “Antimicrobial and Immunomodulatory Activities of PR-39 Derived Peptides” (PLoS ONE, 2014).
Values after ≈ are worked out from the molar mass of the structure shown. Where a SMILES comes first, the peptide text is derived from it.

Assays:
B. globigii = type: cell-based, Bacillus globigii; conditions: colony counting, 3 h 37°C, 10 mM phosphate buffer pH 7.0 with 1/1000 TSB, MBC = <100 CFU/ml; for MBC B. globigii 0 mM NaCl: 2×10^6 CFU/ml, no NaCl added; for MBC B. globigii +100 mM NaCl: 100 mM NaCl added
Method: (§1) Overnight cultures of E. coli and B. globigii were grown in TSB medium at 37°C to mid-logarithmic phase. The antimicrobial activity of the PR-39 derived peptides was tested using colony counting as described before. In short, cells were collected via centrifugation at 900×g for 10 minutes, and resuspended in 10 mM phosphate buffer, pH 7.0, containing 1/1000 TSB medium (Buffer A). Cells were further diluted to 2×10^6 CFU/ml in the same buffer. Next, 25 µl of cell suspension was mixed with an equal volume of different concentrations of peptides ranging from 0–80 µM, and incubated further for 3 hours at 37°C. Ten-fold dilutions were prepared in minimal buffer containing 1/1000 TSB medium in distilled water, and 100 µl from each dilution was spread on TSA plates (Trypton Soy Agar; Oxoid). The plates were incubated at 37°C and the number of colonies was counted 24 h later to determine the number of surviving bacteria. Minimal Bactericidal Concentration (MBC) was defined as <100 CFU/ml corresponding to the detection limit of this assay. To determine the dependence of activity of PR-39 on the energy status of the cell, E. coli was incubated 30 min at 37°C in the presence of the metabolic uncouplers 50 µM carbonyl cyanide m-chlorophenylhydrazone (CCCP), or 5 mM 2,4-dinitrophenol (DNP). Subsequently, an antimicrobial activity assay was performed as described above.

E. coli = test: Colony counting assay (MBC); type: cell-based, Escherichia coli; conditions: 3 h 37°C, 10 mM phosphate buffer pH 7.0 with 1/1000 TSB, MBC = <100 CFU/ml; for MBC E. coli 0 mM NaCl: 2×10^6 CFU/ml, no NaCl added; for MBC E. coli 100 mM NaCl: 100 mM NaCl added
Method: as §1

[1] = system: Bacillus Subtilis (ATCC6633); test: Broth dilution assay (MIC); type: cell-based; conditions: 50% MHB, turbidity, range of triplicate experiments
E.coli ATCC 4157 = test: Broth dilution assay (MIC); type: cell-based, Escherichia coli; conditions: 50% MHB, turbidity, range of triplicate experiments
E.coli K12 = test: Broth dilution assay (MIC); type: cell-based, Escherichia coli; conditions: 50% MHB, turbidity, range of triplicate experiments
E.coli K88 403 = conditions: broth dilution, 50% MHB, turbidity; range of triplicate experiments
Method: Initial screening for antibacterial activity of PR-39 was performed using broth dilution assays. Bacteria were grown to mid-logarithmic phase in MHB medium. The optical density was measured and bacteria were diluted to 2×10^6 CFU/ml. Subsequently 25 µl bacteria were incubated with 25 µl peptide in polypropylene 96 wells plates and incubated at 37°C. After 3 h 200 µl MHD medium was added and samples were further incubated overnight. Minimal inhibitory concentrations (MIC) were determined by turbidity measurement of the wells.

[2] = system: serine proteases, elastase, and aminopeptidases; conditions: cited from earlier work
Text: Current literature on PR-39 has shifted from an initial focus on antibacterial activity to potential new roles in host defence mechanisms.

[3] = system: Enterococcus Faeceum E155; type: cell-based; conditions: broth dilution, 50% MHB, turbidity; range of triplicate experiments
Bacillus Globigii (TNO) = type: cell-based; conditions: broth dilution, 50% MHB, turbidity; range of triplicate experiments
[4] = system: Bacillus Lichen ATCC 21424; test: Broth dilution assay (MIC); type: cell-based, Bacillus licheniformis; conditions: 50% MHB, turbidity, range of triplicate experiments
[5] = system: Enterococcus Faecalis (ATCC 29213); test: Broth dilution assay (MIC); type: cell-based; conditions: 50% MHB, turbidity, range of triplicate experiments
E.coli ATCC25922 = test: Broth dilution assay (MIC); type: cell-based, Escherichia coli; conditions: 50% MHB, turbidity, range of triplicate experiments
[6] = system: Bacillus Cereus ATCC 9193; test: Broth dilution assay (MIC); type: cell-based; conditions: 50% MHB, turbidity, range of triplicate experiments
[7] = system: Streptococcus Pyogenes (ATCC 19616); test: Broth dilution assay (MIC); type: cell-based; conditions: 50% MHB, turbidity, range of triplicate experiments

Row | SMILES | MBC B. globigii 0 mM NaCl (B. globigii) | MBC B. globigii +100 mM NaCl (B. globigii) | MBC E. coli 0 mM NaCl (E. coli) | MBC E. coli 100 mM NaCl (E. coli) | further results
1 | CC(C)C[C@H](NC(=O)[C@H](Cc1ccc(O)cc1)NC(=O)[C@@H]1CCCN1C(=O)[C@@H]1CCCN1C(=O)[C@H](CCCNC(=N)N)NC(=O)[C@@H]1CCCN1C(=O)[C@H](CCCNC(=N)N)NC(=O)[C@H](CCCNC(=N)N)NC(=O)[C@@H](N)CCCNC(=N)N)C(=O)N1CCC[C@H]1C(=O)N[C@@H](CCCNC(=N)N)C(=O)N1CCC[C@H]1C(=O)N[C@@H](CCCNC(=N)N)C(=O)N1CCC[C@H]1C(=O)N1CCC[C@H]1C(=O)O [PR-39(1–15)] (H-RRRPRPPYLPRPRPP-OH) | 5 µM (≈ 9.56 µg/mL) | >40 µM | 5 µM (≈ 9.56 µg/mL) | >40 µM | –
2 | CC(C)C[C@H](NC(=O)[C@H](Cc1ccc(O)cc1)NC(=O)[C@@H]1CCCN1C(=O)[C@@H]1CCCN1C(=O)[C@H](CCCNC(=N)N)NC(=O)[C@@H]1CCCN1C(=O)[C@H](CCCNC(=N)N)NC(=O)[C@H](CCCNC(=N)N)NC(=O)[C@@H](N)CCCNC(=N)N)C(=O)N1CCC[C@H]1C(=O)N[C@@H](CCCNC(=N)N)C(=O)N1CCC[C@H]1C(=O)N[C@@H](CCCNC(=N)N)C(=O)N1CCC[C@H]1C(=O)N1CCC[C@H]1C(=O)N1CCC[C@H]1C(=O)N[C@@H](Cc1ccccc1)C(=O)N[C@@H](Cc1ccccc1)C(=O)O [PR-39(1–18)] (H-RRRPRPPYLPRPRPPPFF-OH) | 2.5 µM (≈ 5.76 µg/mL) | 10 µM (≈ 23 µg/mL) | 5 µM (≈ 11.5 µg/mL) | 20 µM (≈ 46.1 µg/mL) | –
3 | CC(C)C[C@H](NC(=O)[C@H](CCCNC(=N)N)NC(=O)[C@@H]1CCCN1C(=O)[C@@H]1CCCN1C(=O)[C@H](Cc1ccccc1)NC(=O)[C@H](Cc1ccccc1)NC(=O)[C@@H]1CCCN1C(=O)[C@@H]1CCCN1C(=O)[C@@H]1CCCN1C(=O)[C@H](CCCNC(=N)N)NC(=O)[C@@H]1CCCN1C(=O)[C@H](CCCNC(=N)N)NC(=O)[C@@H]1CCCN1C(=O)[C@H](CC(C)C)NC(=O)[C@H](Cc1ccc(O)cc1)NC(=O)[C@@H]1CCCN1C(=O)[C@@H]1CCCN1C(=O)[C@H](CCCNC(=N)N)NC(=O)[C@@H]1CCCN1C(=O)[C@H](CCCNC(=N)N)NC(=O)[C@H](CCCNC(=N)N)NC(=O)[C@@H](N)CCCNC(=N)N)C(=O)O [PR-39(1–22)] (H-RRRPRPPYLPRPRPPPFFPPRL-OH) | 2.5 µM (≈ 6.92 µg/mL) | 10 µM (≈ 27.7 µg/mL) | 1.25 µM (≈ 3.46 µg/mL) | 2.5 µM (≈ 6.92 µg/mL) | –
4 | CC[C@H](C)[C@H](NC(=O)[C@H](CCCNC(=N)N)NC(=O)[C@@H]1CCCN1C(=O)[C@@H]1CCCN1C(=O)[C@H](CC(C)C)NC(=O)[C@H](CCCNC(=N)N)NC(=O)[C@@H]1CCCN1C(=O)[C@@H]1CCCN1C(=O)[C@H](Cc1ccccc1)NC(=O)[C@H](Cc1ccccc1)NC(=O)[C@@H]1CCCN1C(=O)[C@@H]1CCCN1C(=O)[C@@H]1CCCN1C(=O)[C@H](CCCNC(=N)N)NC(=O)[C@@H]1CCCN1C(=O)[C@H](CCCNC(=N)N)NC(=O)[C@@H]1CCCN1C(=O)[C@H](CC(C)C)NC(=O)[C@H](Cc1ccc(O)cc1)NC(=O)[C@@H]1CCCN1C(=O)[C@@H]1CCCN1C(=O)[C@H](CCCNC(=N)N)NC(=O)[C@@H]1CCCN1C(=O)[C@H](CCCNC(=N)N)NC(=O)[C@H](CCCNC(=N)N)NC(=O)[C@@H](N)CCCNC(=N)N)C(=O)O [PR-39(1–26)] (H-RRRPRPPYLPRPRPPPFFPPRLPPRI-OH) | 5 µM (≈ 16.1 µg/mL) | 5 µM (≈ 16.1 µg/mL) | 2.5 µM (≈ 8.07 µg/mL) | 1.25 µM (≈ 4.04 µg/mL) | –
5 | CC[C@H](C)[C@H](NC(=O)[C@H](CCCNC(=N)N)NC(=O)[C@@H]1CCCN1C(=O)[C@@H]1CCCN1C(=O)[C@H](CC(C)C)NC(=O)[C@H](CCCNC(=N)N)NC(=O)[C@@H]1CCCN1C(=O)[C@@H]1CCCN1C(=O)[C@H](Cc1ccccc1)NC(=O)[C@H](Cc1ccccc1)NC(=O)[C@@H]1CCCN1)C(=O)N1CCC[C@H]1C(=O)N1CCC[C@H]1C(=O)NCC(=O)N[C@@H](Cc1ccccc1)C(=O)N1CCC[C@H]1C(=O)N1CCC[C@H]1C(=O)N[C@@H](CCCNC(=N)N)C(=O)N[C@@H](Cc1ccccc1)C(=O)N1CCC[C@H]1C(=O)N1CCC[C@H]1C(=O)N[C@@H](CCCNC(=N)N)C(=O)N[C@@H](Cc1ccccc1)C(=O)N1CCC[C@H]1C(=O)O [PR-39(16–39)] (H-PFFPPRLPPRIPPGFPPRFPPRFP-OH) | 10 µM (≈ 28.3 µg/mL) | >40 µM | 10 µM (≈ 28.3 µg/mL) | >40 µM | –
6 | CC[C@H](C)[C@H](NC(=O)[C@H](CCCNC(=N)N)NC(=O)[C@@H]1CCCN1C(=O)[C@@H]1CCCN1C(=O)[C@H](CC(C)C)NC(=O)[C@H](CCCNC(=N)N)NC(=O)[C@@H]1CCCN1)C(=O)N1CCC[C@H]1C(=O)N1CCC[C@H]1C(=O)NCC(=O)N[C@@H](Cc1ccccc1)C(=O)N1CCC[C@H]1C(=O)N1CCC[C@H]1C(=O)N[C@@H](CCCNC(=N)N)C(=O)N[C@@H](Cc1ccccc1)C(=O)N1CCC[C@H]1C(=O)N1CCC[C@H]1C(=O)N[C@@H](CCCNC(=N)N)C(=O)N[C@@H](Cc1ccccc1)C(=O)N1CCC[C@H]1C(=O)O [PR-39(20–39)] (H-PRLPPRIPPGFPPRFPPRFP-OH) | 20 µM (≈ 46.8 µg/mL) | >40 µM | 5 µM (≈ 11.7 µg/mL) | >40 µM | –
7 | CC[C@H](C)[C@H](NC(=O)[C@H](CCCNC(=N)N)NC(=O)[C@@H]1CCCN1)C(=O)N1CCC[C@H]1C(=O)N1CCC[C@H]1C(=O)NCC(=O)N[C@@H](Cc1ccccc1)C(=O)N1CCC[C@H]1C(=O)N1CCC[C@H]1C(=O)N[C@@H](CCCNC(=N)N)C(=O)N[C@@H](Cc1ccccc1)C(=O)N1CCC[C@H]1C(=O)N1CCC[C@H]1C(=O)N[C@@H](CCCNC(=N)N)C(=O)N[C@@H](Cc1ccccc1)C(=O)N1CCC[C@H]1C(=O)O [PR-39(24–39)] (H-PRIPPGFPPRFPPRFP-OH) | 40 µM (≈ 75 µg/mL) | >40 µM | 40 µM (≈ 75 µg/mL) | >40 µM | –
8 | CC[C@H](C)[C@H](NC(=O)[C@H](CCCNC(=N)N)NC(=O)[C@@H]1CCCN1C(=O)[C@@H]1CCCN1C(=O)[C@H](CC(C)C)NC(=O)[C@H](CCCNC(=N)N)NC(=O)[C@@H]1CCCN1C(=O)[C@@H]1CCCN1C(=O)[C@H](Cc1ccccc1)NC(=O)[C@H](Cc1ccccc1)NC(=O)[C@@H]1CCCN1C(=O)[C@@H]1CCCN1C(=O)[C@@H]1CCCN1C(=O)[C@H](CCCNC(=N)N)NC(=O)[C@@H]1CCCN1C(=O)[C@H](CCCNC(=N)N)NC(=O)[C@@H]1CCCN1C(=O)[C@H](CC(C)C)NC(=O)[C@H](Cc1ccc(O)cc1)NC(=O)[C@@H]1CCCN1C(=O)[C@@H]1CCCN1C(=O)[C@H](CCCNC(=N)N)NC(=O)[C@@H]1CCCN1C(=O)[C@H](CCCNC(=N)N)NC(=O)[C@H](CCCNC(=N)N)NC(=O)[C@@H](N)CCCNC(=N)N)C(=O)N1CCC[C@H]1C(=O)N1CCC[C@H]1C(=O)NCC(=O)N[C@@H](Cc1ccccc1)C(=O)N1CCC[C@H]1C(=O)N1CCC[C@H]1C(=O)N[C@@H](CCCNC(=N)N)C(=O)N[C@@H](Cc1ccccc1)C(=O)N1CCC[C@H]1C(=O)N1CCC[C@H]1C(=O)N[C@@H](CCCNC(=N)N)C(=O)N[C@@H](Cc1ccccc1)C(=O)N1CCC[C@H]1C(=O)O [PR-39] (H-RRRPRPPYLPRPRPPPFFPPRLPPRIPPGFPPRFPPRFP-OH) | 2.5 µM (≈ 11.8 µg/mL) | 5 µM (≈ 23.6 µg/mL) | 1.25 µM (≈ 5.9 µg/mL) | 2.5 µM (≈ 11.8 µg/mL) | MIC [1]: 2.5 to 5 µM; MIC (E.coli ATCC 4157): 1.25 to 2.5 µM; MIC (E.coli K12): 1.25 to 2.5 µM; MIC (E.coli K88 403): 1.25 to 2.5 µM; resistance to proteases [2]: resistant to serine proteases, elastase, and aminopeptidases; MIC [3]: 1.25 to 2.5 µM; MIC (Bacillus Globigii (TNO)): 1.25 to 5 µM; MIC [4]: 5 µM (≈ 23.6 µg/mL); MIC [5]: 10 µM (≈ 47.2 µg/mL); MIC (E.coli ATCC25922): 2.5 to 10 µM; MIC [6]: 5 to 20 µM; MIC [7]: 2.5 to 5 µM
